Experiment [1] concerns CGRP-induced increase in laser Doppler facial blood flow. Kind of experiment: Non-terminal laser Doppler facial blood flow model in non-human primate. As to conditions: iv, CGRP 10 μg/kg. In kind it is in vivo, common marmoset (Callithrix jacchus). The source says: Overview. […] Non-human primates (e.g., marmosets) are the only animals known to have human-like CGRP receptor pharmacology conferred by the presence of the specific amino acid residue (Trp74) in their RAMP1 sequence which is responsible for the phenotype of the human receptor (Mallee et al. J Biol Chem 2002 277:14294). […] Peptide and small-molecule CGRP-receptor antagonists were used to validate the non-human primate model.
Animals. Adult male and female common marmosets (Callithrix jacchus) purchased from Harlan and weighing 350-550 g served as subjects. Other mammals endogenously expressing RAMP1 having Trp 74 or transgenic mammals with humanized RAMP1 having Trp 74 can also be employed in A compound described herein.
Anesthesia & Surgical Preparation. Animals are anesthetized by isoflurane inhalation in an induction chamber (4-5% rapid induction, maintained with 1-2.5%; Solomon et al., 1999). Anesthesia is maintained by delivering a constant supply of air:oxygen (50:50) and isoflurane via face mask, or by intubation and ventilation (with blood gas monitoring). Body temperature is maintained at 38±0.5° C. by placement on an automated temperature controlled surface with rectal probe. A small area of fur (approx. 1.5 cm square) is removed from one or both sides of the face by application of a depilatory cream and/or shaving. Surgical areas are clipped and prepared with betadine. An i.v. line is placed in any accessible vein for the administration of test compounds and CGRP-receptor agonist and, if needed, withdrawal of blood samples (max 2.5 ml, 10%) for blood gas monitoring and content analysis. A solution of 5% dextrose is administered i.v. in order to maintain blood sugar levels. Anesthesia depth is monitored by measuring blood pressure and heart rate using a non-invasive arm cuff method and a pulse oximeter, respectively. Guanethidine 5-10 mg/kg i.v., supplemented with 5 mg/kg i.v. as needed, may be given to stabilize the peak flux in facial blood flow seen with repeated stimulation-induced changes in blood flow (Escott et al., 1999; incorporated by reference herein). Microvascular blood flow is monitored by attaching a self adhesive laser Doppler flow probe to the facial skin.
Compound Administration Test compounds may be administered i.v. (0.01-5 ml/kg), i.m. (0.01-0.5 ml/kg), s.c. (0.01-5 ml/kg) or p.o. (0.1-10 ml/kg) (Diehl et al., 2001; incorporated by reference herein). CGRP-receptor agonists may be delivered i.v. (0.01-5 ml/kg), i.d. (10-100 μl/site) or s.c. (10-100 μl/site).

The subject of experiment [2] is human cerebral vessels (CGRP-induced dilation). Put plainly: Ex Vivo Human Cerebral Artery Assay, reversal of CGRP-induced relaxation. As to conditions: reversal of 1 nM hCGRP-induced relaxation, vessels pre-contracted with 10 mM KCl. In a few lines:
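Autopsy human cerebral artery rings (4-5 mm) in Krebs buffer, 37 °C, pH 7.4, carbogen; primed with 100 mM KCl, pre-contracted with 10 mM KCl and fully dilated with 1 nM hCGRP. Antagonists added cumulatively in half-log steps; tension recorded as % reversal of CGRP relaxation, EC50 by four-parameter logistic fit per vessel.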

Experiment [3] concerns the target T1, CGRP receptor (SK-N-MC cell membranes) (Homo sapiens, UniProt O60894+Q16602).
T1 construct: endogenous in cells; host or cells: SK-N-MC cells (membrane homogenate)
Put plainly: CGRP Binding Assay ([125I]-CGRP radioligand binding, SK-N-MC homogenate). As to conditions: displacement of [125I]-CGRP, SK-N-MC homogenate; read-out: CGRP binding IC50. (Loss of bound radioactivity is the signal in a displacement assay; it reports binding, not function.)

pEC50, pIC50: −log10 of the molar value.

The term pEC50 denotes the EC50 on a negative log10 scale, so that one unit is a factor of ten. By pIC50 is commonly meant −log10 of the IC50, conventionally taken in molar units.

T1 sequence (Q16602 23-461): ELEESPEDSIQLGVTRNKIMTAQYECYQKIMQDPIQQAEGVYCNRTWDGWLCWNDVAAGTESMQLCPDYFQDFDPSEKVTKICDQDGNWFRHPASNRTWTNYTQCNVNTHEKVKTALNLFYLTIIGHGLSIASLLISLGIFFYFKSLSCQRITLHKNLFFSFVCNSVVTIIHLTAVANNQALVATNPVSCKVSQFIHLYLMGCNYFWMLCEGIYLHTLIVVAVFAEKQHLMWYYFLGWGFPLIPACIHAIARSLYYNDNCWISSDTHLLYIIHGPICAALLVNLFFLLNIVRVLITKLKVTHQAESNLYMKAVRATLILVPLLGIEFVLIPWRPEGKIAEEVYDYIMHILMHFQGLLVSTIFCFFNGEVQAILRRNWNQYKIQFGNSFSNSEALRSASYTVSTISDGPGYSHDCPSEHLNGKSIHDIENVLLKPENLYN
T1 sequence (O60894 27-148): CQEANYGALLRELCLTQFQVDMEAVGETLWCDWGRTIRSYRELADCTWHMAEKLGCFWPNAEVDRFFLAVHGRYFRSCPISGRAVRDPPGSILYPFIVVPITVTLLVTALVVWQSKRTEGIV

As to `Cc1cc(CC(CC(=O)N2CCC(N3Cc4ccccc4NC3=O)CC2)C(=O)N2CCC(N3CCCCC3)CC2)cc2cn[nH]c12` (racemic) [Example 69, (±)-1-[1,4′]Bipiperidinyl-1′-yl-2-(7-methyl-1H-indazol-5-ylmethyl)-4-[4-(2-oxo-1,4-dihydro-2H-quinazolin-3-yl)-piperidin-1-yl]-butane-1,4-dione], the results for the “% Inhibition of CGRP-induced increase in laser Doppler facial blood flow” value in experiment [1] (0.03 mg/kg) and in experiment [1] (0.1 mg/kg) were “Y (50%<Y≦75%)” and “Z (Z>75%)”, respectively. Further, the pEC50 in experiment [2] is > 8.00. Moreover, in experiment [3], the pIC50 is > 8.00.
Turning to `Cc1cc(CC(NC(=O)N2CCC(N3Cc4ccccc4NC3=O)CC2)C(=O)N2CCC(N3CCCCC3)CC2)cc2cn[nH]c12` (racemic) [Example 16, (±)-4-(2-Oxo-1,4-dihydro-2H-quinazolin-3-yl)-piperidine-1-carboxylic acid[2-[1,4′]bipiperidinyl-1′-yl-1-(7-methyl-1H-indazol-5-ylmethyl)-2-oxo-ethyl]-amide], in experiment [1] (0.03 mg/kg), the “% Inhibition of CGRP-induced increase in laser Doppler facial blood flow” value is “Y (50%<Y≦75%)”. Besides, the pEC50 in experiment [2] is > 8.00. In addition, in experiment [3], the pIC50 is > 8.00.
